# Source: the supplement of paper PMC10307832
# Assays:
# Assay in all cases: relative viability (nuclei count vs DMSO), 5 days (fraction); higher = more cells survive
# [1] = compound: CC1=C(C(=O)N2C=CSC2=N1)CCN3CCC(=C(C4=CC=CC=C4)C5=CC=C(C=C5)F)CC3 + CCNC(=O)c1noc(-c2cc(C(C)C)c(O)cc2O)c1-c1ccc(CN2CCOCC2)cc1 [Luminespib] (partner 0.01 µM)
# Method in brief: (§1)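 Relative viability divides the nuclei count in treated wells by that in vehicle wells. Lung cancer cell lines were seeded in 1536-well plates, dosed by pin tool the next day, and fixed and stained after 5 days in one step with final 0.05% Triton X-100, 1% formaldehyde and 1 ug/ml Hoechst. Dosing was a single drug or a fixed anchor-drug dose plus five library-drug doses (not always all listed) in √10 steps, and values are medians of duplicate plates imaged at 4×.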
# [2] = compound: CC1=C(C(=O)N2C=CSC2=N1)CCN3CCC(=C(C4=CC=CC=C4)C5=CC=C(C=C5)F)CC3 + Cc1cc(Nc2cc(N3CCN(C)CC3)nc(Sc3ccc(NC(=O)C4CC4)cc3)n2)n[nH]1 [Tozasertib] (partner 0.1 µM)
# Method in brief: as §1
# [3] = compound: CC1=C(C(=O)N2C=CSC2=N1)CCN3CCC(=C(C4=CC=CC=C4)C5=CC=C(C=C5)F)CC3 + Cc1nc(Nc2ncc(C(=O)Nc3c(C)cccc3Cl)s2)cc(N2CCN(CCO)CC2)n1 [Dasatinib] (partner 0.075 µM)
# Method in brief: as §1
# [4] = compound: CC1=C(C(=O)N2C=CSC2=N1)CCN3CCC(=C(C4=CC=CC=C4)C5=CC=C(C=C5)F)CC3 + Cc1nc(NC(=O)N2CCC[C@H]2C(N)=O)sc1-c1ccnc(C(C)(C)C(F)(F)F)c1 [Alpelisib] (partner 2 µM)
# Method in brief: as §1
Cell Line,relative viability ([1]; first compound 0.08 µM),relative viability ([1]; first compound 0.253 µM),relative viability ([1]; first compound 0.8 µM),relative viability ([1]; first compound 2.53 µM),relative viability ([1]; first compound 8 µM),relative viability ([2]; first compound 0.08 µM),relative viability ([2]; first compound 0.253 µM),relative viability ([2]; first compound 0.8 µM),relative viability ([2]; first compound 2.53 µM),relative viability ([2]; first compound 8 µM),relative viability ([3]; first compound 0.08 µM),relative viability ([3]; first compound 0.253 µM),relative viability ([3]; first compound 0.8 µM),relative viability ([3]; first compound 2.53 µM),relative viability ([3]; first compound 8 µM),relative viability ([4]; first compound 0.08 µM),relative viability ([4]; first compound 0.253 µM),relative viability ([4]; first compound 0.8 µM),relative viability ([4]; first compound 2.53 µM),relative viability ([4]; first compound 8 µM)
201T,1.02,1.1,1.06,1.05,0.966,0.976,1.02,0.952,0.973,0.739,0.614,0.628,0.541,0.713,0.569,1.02,1.04,1.08,1.07,0.852
A-427,0.91,0.919,0.923,1.15,0.88,0.179,0.19,0.175,0.204,0.21,0.788,0.585,0.715,0.696,0.457,1.15,1.11,1.05,1.1,1.08
ABC-1,0.743,0.607,0.429,0.329,0.564,0.15,0.181,0.165,0.206,0.174,0.622,0.606,0.455,0.512,0.467,0.989,0.935,1.08,1.09,0.605
BEN,0.439,0.33,0.308,0.308,0.35,0.48,0.493,0.493,0.529,0.551,0.318,0.319,0.294,0.362,0.284,0.826,1.09,1.09,0.974,0.69
CAL-12T,0.224,0.501,0.384,0.502,0.385,0.316,0.304,0.311,0.302,0.255,0.319,0.268,0.373,0.527,0.279,0.811,1.34,1.45,1.49,0.589
COR-L23,0.61,0.831,0.785,0.671,0.504,0.18,0.164,0.169,0.214,0.184,0.383,0.341,0.457,0.59,0.403,0.755,1.05,0.818,0.877,0.667
COR-L 105,0.673,0.817,0.798,0.809,0.659,0.322,0.346,0.34,0.388,0.345,0.416,0.32,0.241,0.372,0.294,0.984,1.09,1.16,1.1,0.963
Calu-6,–,–,–,–,–,–,–,–,–,–,–,–,–,–,–,1.02,1.06,0.91,0.997,0.807
ChaGo-K-1,0.462,0.648,0.644,0.514,0.444,0.202,0.244,0.215,0.232,0.21,0.598,0.635,0.59,0.639,0.547,–,–,–,–,–
EBC-1,–,–,–,–,–,–,–,–,–,–,–,–,–,–,–,0.812,0.861,0.789,0.97,0.643
EKVX,0.768,0.915,0.936,0.871,0.825,0.385,0.444,0.35,0.334,0.359,0.359,0.631,0.519,0.434,0.549,0.719,0.868,1.05,1.14,0.652
EMC-BAC-2,1.23,1.15,1.28,1.16,1.03,0.192,0.278,0.275,0.278,0.261,0.287,0.329,0.277,0.328,0.298,0.639,0.673,0.806,0.824,0.588
EPLC-272H,0.276,0.227,0.197,0.423,0.268,0.225,0.25,0.269,0.203,0.515,0.364,0.331,0.378,0.305,0.22,–,0.878,1.05,0.852,0.737
H3255,0.796,0.892,0.786,0.961,0.709,0.497,0.921,0.633,0.489,0.507,0.349,0.357,0.307,0.339,0.375,0.52,0.623,0.727,0.712,0.587
HARA,0.682,0.73,0.688,0.477,0.426,0.111,0.117,0.104,0.111,0.114,0.243,0.23,0.265,0.229,0.136,0.932,0.668,1.05,0.77,0.623
HCC-15,0.444,0.321,0.22,0.444,0.293,0.347,0.447,0.379,0.368,0.281,0.638,0.561,0.643,0.678,0.586,0.875,0.958,0.972,1.04,0.69
HCC-44,1.37,1.51,–,1.3,0.736,0.855,1.33,–,0.896,0.525,–,–,–,–,–,0.906,0.736,0.863,0.73,0.805
HCC-78,–,–,–,–,–,0.402,0.468,0.451,0.345,0.303,0.344,0.356,0.373,0.344,0.248,0.352,0.347,0.324,0.379,0.286
